As usually defined, the AC50 is the concentration giving half of the maximal activity seen.

This is an account of results in ChEMBL document CHEMBL5291721, “A preclinical secondary pharmacology resource illuminates target-adverse drug reaction associations of marketed drugs” (Nat Commun, 2023).

Some targets named below: Melanocortin receptor 3 (Homo sapiens, UniProt P41968); Vasopressin V2 receptor (Homo sapiens, UniProt P30518); D(3) dopamine receptor (Homo sapiens, UniProt P35462); Motilin receptor (Homo sapiens, UniProt O43193); Vasopressin V1a receptor (Homo sapiens, UniProt P37288).
Assay [1] addresses T1, Alpha-2C adrenergic receptor (Homo sapiens, UniProt P18825).
T1 sequence (P18825 whole entry): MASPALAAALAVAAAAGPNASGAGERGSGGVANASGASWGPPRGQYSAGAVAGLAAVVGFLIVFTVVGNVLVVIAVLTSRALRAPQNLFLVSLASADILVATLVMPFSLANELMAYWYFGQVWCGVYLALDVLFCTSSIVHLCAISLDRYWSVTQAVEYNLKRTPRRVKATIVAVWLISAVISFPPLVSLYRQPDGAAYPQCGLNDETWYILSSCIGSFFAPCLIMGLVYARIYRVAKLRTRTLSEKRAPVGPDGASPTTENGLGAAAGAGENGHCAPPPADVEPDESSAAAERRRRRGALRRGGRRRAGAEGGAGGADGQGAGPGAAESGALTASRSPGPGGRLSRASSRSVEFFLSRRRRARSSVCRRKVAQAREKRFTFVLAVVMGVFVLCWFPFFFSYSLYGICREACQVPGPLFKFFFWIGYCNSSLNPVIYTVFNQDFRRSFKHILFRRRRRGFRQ
It is filed as functional.

Assay [2] concerns the target T2, Neuropeptide Y receptor type 1 (Homo sapiens, UniProt P25929).
T2 sequence (P25929 whole entry): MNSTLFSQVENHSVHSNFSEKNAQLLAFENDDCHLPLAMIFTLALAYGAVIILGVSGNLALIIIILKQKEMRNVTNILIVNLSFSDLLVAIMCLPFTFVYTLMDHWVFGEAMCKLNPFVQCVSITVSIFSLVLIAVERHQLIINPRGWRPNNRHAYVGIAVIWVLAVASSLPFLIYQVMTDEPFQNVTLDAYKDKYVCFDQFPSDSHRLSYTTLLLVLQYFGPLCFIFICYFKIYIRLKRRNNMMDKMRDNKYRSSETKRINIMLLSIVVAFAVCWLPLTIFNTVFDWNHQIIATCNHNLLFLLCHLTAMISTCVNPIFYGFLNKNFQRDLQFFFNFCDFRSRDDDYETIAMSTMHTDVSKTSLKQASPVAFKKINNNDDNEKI

The target in a further assay is D(1A) dopamine receptor (Homo sapiens, UniProt P21728). It is filed as functional, cell-based.
Sequence of D(1A) dopamine receptor (P21728 whole entry): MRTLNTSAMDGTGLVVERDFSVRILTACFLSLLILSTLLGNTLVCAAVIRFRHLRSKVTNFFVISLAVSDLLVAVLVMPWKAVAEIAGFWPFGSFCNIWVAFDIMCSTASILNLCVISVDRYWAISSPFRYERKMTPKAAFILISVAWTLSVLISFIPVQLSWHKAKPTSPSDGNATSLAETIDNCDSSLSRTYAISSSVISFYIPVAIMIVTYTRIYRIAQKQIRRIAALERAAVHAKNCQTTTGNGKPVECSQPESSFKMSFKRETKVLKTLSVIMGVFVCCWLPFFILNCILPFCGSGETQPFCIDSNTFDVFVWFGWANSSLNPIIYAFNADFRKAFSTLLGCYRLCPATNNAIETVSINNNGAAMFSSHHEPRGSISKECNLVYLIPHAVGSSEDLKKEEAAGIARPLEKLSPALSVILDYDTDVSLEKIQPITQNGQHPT
In assay [3] the target is Voltage-gated inwardly rectifying potassium channel KCNH2 (Homo sapiens, UniProt Q12809). It counts as functional. As to conditions: read-out: AC50.
Sequence of Voltage-gated inwardly rectifying potassium channel KCNH2 (Q12809 whole entry): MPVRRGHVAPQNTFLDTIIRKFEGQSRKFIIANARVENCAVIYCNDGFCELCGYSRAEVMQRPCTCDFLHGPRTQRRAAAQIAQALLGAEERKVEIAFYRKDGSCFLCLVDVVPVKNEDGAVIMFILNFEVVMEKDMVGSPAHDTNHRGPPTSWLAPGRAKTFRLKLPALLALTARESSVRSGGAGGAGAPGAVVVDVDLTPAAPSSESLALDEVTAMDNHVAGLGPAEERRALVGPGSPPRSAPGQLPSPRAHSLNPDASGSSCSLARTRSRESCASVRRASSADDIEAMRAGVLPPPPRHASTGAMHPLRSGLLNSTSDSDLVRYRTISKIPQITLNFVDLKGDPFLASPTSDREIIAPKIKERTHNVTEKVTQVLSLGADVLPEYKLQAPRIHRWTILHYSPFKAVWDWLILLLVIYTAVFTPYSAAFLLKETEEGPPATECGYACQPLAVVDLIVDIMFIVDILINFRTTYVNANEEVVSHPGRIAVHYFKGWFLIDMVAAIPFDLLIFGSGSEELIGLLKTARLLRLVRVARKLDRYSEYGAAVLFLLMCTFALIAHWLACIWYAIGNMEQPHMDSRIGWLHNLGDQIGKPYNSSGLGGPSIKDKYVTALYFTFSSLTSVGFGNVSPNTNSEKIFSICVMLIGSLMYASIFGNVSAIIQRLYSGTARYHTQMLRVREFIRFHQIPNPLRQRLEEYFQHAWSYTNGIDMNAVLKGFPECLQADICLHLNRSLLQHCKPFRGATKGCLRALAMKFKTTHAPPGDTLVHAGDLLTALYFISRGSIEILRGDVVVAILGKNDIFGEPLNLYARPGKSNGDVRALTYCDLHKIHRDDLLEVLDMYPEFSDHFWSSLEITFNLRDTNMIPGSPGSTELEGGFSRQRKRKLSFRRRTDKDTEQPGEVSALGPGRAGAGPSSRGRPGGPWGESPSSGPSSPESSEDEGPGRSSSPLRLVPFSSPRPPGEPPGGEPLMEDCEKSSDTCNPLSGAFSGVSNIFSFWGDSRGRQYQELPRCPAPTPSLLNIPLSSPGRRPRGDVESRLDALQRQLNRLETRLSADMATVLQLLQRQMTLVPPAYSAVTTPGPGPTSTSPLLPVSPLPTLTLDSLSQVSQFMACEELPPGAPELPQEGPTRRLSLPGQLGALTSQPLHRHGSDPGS
For assay [4], the target named is T3, Alpha-2A adrenergic receptor (Homo sapiens, UniProt P08913).
T3 sequence (P08913 whole entry): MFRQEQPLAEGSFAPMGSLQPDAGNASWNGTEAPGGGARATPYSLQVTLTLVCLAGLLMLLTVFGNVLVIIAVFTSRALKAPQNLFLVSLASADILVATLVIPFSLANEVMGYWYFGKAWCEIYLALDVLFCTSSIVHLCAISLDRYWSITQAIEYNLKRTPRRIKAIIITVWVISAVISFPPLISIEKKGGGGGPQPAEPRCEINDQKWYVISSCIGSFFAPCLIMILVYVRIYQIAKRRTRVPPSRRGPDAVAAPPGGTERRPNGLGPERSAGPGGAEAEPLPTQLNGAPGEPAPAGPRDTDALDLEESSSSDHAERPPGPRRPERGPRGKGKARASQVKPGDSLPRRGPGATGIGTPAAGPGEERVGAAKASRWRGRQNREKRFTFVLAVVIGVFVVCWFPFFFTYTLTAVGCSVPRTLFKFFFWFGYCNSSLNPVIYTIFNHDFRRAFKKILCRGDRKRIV
It is filed as functional, cell-based.

For assay [5], the target named is 3',5'-cyclic-AMP phosphodiesterase 4D (Homo sapiens, UniProt Q08499). It counts as functional.
Sequence of 3',5'-cyclic-AMP phosphodiesterase 4D (Q08499 whole entry): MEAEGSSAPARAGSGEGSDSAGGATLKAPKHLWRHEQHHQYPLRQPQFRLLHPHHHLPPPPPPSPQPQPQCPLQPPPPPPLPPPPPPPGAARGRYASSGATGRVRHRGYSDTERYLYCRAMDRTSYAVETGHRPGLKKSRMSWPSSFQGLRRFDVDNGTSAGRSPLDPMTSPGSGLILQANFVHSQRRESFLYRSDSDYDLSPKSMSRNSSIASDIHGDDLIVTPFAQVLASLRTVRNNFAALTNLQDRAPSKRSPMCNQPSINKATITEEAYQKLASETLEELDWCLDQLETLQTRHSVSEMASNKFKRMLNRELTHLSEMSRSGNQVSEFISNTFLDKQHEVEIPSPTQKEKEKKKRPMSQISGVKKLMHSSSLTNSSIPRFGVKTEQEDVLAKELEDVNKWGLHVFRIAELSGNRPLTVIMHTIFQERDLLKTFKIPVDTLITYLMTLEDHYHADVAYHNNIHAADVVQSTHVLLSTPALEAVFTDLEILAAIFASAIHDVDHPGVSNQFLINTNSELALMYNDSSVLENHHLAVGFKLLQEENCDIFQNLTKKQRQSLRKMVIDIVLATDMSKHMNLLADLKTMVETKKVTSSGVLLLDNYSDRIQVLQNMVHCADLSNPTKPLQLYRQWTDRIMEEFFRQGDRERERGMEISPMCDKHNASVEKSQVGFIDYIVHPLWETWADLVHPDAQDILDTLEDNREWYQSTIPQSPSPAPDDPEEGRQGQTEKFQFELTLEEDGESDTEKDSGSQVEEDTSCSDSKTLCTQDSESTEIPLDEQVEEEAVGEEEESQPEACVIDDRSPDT
The target of assay [6] is T4, Alpha-2B adrenergic receptor (Homo sapiens, UniProt P18089).
T4 sequence (P18089 whole entry): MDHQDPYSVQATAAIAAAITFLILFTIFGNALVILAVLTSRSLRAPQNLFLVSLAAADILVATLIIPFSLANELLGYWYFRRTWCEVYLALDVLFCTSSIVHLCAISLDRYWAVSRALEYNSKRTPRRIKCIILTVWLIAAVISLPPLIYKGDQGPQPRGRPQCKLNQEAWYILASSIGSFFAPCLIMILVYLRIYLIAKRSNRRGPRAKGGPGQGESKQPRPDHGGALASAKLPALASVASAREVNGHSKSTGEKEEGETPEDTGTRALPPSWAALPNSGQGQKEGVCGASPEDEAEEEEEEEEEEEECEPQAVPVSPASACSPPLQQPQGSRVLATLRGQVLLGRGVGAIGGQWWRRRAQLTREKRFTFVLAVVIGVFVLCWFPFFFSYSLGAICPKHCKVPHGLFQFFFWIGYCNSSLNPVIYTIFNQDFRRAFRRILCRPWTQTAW

Assay [7] deals with Muscarinic acetylcholine receptor M3 (Homo sapiens, UniProt P20309).
Assay [8] concerns the target Sodium-dependent dopamine transporter (Homo sapiens, UniProt Q01959).
For assay [9], the target named is Sodium-dependent serotonin transporter (Homo sapiens, UniProt P31645).
The target in a further assay is T5, Adenosine receptor A3 (Homo sapiens, UniProt P0DMS8).
T5 sequence (P0DMS8 whole entry): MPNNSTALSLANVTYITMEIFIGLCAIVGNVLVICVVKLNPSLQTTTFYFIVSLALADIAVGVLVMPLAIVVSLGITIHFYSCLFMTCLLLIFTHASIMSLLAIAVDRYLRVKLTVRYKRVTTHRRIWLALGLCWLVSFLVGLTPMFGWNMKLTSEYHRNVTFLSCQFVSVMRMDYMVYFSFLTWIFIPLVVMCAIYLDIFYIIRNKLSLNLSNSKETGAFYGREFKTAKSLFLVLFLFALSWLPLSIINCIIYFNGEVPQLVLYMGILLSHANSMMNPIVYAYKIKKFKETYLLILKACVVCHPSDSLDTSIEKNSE

For assay [10], the target named is cGMP-inhibited 3',5'-cyclic phosphodiesterase 3A (Homo sapiens, UniProt Q14432). It is filed as functional.

Where only a bound is given, the exact number is not on record here.
Note: assay procedure not described here.

Sequence of Motilin receptor (O43193 whole entry): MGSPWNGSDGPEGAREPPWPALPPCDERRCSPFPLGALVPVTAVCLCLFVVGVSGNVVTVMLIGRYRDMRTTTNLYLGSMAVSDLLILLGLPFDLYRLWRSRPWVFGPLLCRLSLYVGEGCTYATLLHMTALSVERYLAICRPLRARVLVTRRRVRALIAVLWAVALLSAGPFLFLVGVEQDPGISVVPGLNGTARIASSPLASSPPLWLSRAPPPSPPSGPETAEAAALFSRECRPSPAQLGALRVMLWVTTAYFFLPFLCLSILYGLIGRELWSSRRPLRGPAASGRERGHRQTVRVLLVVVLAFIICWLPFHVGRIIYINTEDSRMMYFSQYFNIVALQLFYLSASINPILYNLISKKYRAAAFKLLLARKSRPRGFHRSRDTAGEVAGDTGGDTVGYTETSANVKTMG
Sequence of Vasopressin V1a receptor (P37288 whole entry): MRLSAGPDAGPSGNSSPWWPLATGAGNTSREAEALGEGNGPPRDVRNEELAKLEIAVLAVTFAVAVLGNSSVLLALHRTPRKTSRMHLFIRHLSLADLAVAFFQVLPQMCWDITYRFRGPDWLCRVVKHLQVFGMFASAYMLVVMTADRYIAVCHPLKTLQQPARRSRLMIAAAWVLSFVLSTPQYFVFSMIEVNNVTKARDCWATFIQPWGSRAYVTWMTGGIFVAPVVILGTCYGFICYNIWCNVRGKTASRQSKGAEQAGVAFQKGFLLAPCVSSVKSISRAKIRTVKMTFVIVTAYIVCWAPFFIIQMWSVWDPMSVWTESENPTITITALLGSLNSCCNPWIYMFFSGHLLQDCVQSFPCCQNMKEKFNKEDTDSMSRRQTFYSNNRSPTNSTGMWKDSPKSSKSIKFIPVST
Sequence of Vasopressin V2 receptor (P30518 whole entry): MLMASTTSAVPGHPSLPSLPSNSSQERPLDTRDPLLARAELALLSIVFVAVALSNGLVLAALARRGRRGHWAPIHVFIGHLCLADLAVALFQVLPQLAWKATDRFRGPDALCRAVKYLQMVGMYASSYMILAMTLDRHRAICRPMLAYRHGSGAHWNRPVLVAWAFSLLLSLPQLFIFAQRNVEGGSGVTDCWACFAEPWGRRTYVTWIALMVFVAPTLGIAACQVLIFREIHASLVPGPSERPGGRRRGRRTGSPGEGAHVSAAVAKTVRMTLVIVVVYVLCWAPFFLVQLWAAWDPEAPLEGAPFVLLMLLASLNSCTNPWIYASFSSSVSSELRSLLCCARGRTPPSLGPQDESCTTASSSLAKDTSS
Sequence of D(3) dopamine receptor (P35462 whole entry): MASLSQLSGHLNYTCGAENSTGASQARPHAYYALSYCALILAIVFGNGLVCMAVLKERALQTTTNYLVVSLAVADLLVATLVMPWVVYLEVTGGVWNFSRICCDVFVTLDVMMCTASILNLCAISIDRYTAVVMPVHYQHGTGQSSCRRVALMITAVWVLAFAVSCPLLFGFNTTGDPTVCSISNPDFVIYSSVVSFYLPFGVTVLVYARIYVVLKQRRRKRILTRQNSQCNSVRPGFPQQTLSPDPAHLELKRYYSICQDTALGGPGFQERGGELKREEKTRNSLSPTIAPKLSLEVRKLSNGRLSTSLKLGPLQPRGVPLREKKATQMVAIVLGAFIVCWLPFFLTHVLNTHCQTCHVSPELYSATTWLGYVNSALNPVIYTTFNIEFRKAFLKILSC
Sequence of Sodium-dependent dopamine transporter (Q01959 whole entry): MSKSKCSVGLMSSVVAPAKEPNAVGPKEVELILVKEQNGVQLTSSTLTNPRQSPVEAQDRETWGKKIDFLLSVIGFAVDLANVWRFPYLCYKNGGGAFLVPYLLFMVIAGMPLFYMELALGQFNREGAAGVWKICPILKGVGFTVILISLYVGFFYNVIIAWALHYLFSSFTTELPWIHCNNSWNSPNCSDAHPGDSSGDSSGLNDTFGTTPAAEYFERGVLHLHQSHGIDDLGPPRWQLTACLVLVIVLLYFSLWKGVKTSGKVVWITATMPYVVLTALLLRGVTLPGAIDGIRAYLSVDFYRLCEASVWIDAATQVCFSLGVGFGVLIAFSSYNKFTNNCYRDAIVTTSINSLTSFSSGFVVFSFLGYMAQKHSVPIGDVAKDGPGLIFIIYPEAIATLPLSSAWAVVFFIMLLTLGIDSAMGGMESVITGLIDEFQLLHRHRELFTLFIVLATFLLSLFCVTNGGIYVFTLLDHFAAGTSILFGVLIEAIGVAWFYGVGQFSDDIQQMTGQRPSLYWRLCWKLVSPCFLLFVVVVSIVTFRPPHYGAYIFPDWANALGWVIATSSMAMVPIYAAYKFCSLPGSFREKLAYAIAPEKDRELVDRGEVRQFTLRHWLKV
Sequence of Melanocortin receptor 3 (P41968 whole entry): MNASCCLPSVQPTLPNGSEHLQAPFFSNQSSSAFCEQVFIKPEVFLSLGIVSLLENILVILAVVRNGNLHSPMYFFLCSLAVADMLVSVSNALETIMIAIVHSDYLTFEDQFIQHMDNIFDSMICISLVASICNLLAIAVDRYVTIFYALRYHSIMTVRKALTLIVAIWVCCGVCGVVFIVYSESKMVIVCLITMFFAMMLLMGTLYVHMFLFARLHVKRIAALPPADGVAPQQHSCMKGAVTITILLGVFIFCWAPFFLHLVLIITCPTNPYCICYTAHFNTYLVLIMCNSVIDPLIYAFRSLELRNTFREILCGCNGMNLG

As for `CO[C@@H]1[C@@H](O[C@@H]2O[C@H](C)[C@@H](O[C@H]3C[C@@](C)(O)[C@@H](OC(=O)CC(C)C)[C@H](C)O3)[C@H](N(C)C)[C@H]2O)[C@@H](CC=O)C[C@@H](C)[C@@H](O)/C=C/C=C/C[C@@H](C)OC(=O)C[C@H]1OC(C)=O` [JOSAMYCIN], the AC50 in [1] is above 10 µM; in [2], above 10 µM; at D(1A) dopamine receptor it was above 10 µM; in assay [3] it was above 30 µM; in [4], above 10 µM; on Melanocortin receptor 3, above 10 µM. Also, the AC50 in [5] was above 30 µM; in assay [6] it was above 10 µM; in [7], above 30 µM; in [8], above 10 µM; in assay [9], above 10 µM; on Vasopressin V2 receptor, above 10 µM. Moreover, the AC50 was above 10 µM at Adenosine receptor A3; above 30 µM at D(3) dopamine receptor; above 30 µM in assay [10]; above 10 µM on Motilin receptor; above 10 µM on Vasopressin V1a receptor.

With `COC(=O)C1=C(C)NC(C)=C(C(=O)OC(C)(C)CN(C)CCC(c2ccccc2)c2ccccc2)C1c1cccc([N+](=O)[O-])c1` (centres undefined) [LERCANIDIPINE], the AC50 (in assay [1]; in [2]; on D(1A) dopamine receptor; in assay [3]; in assay [4]; on Melanocortin receptor 3) was above 30 µM each time. The AC50 was above 30 µM in [5]; above 30 µM in assay [6]; above 30 µM in [7]; 35.7 µM in assay [8]; above 30 µM in assay [9]; above 30 µM on Vasopressin V2 receptor. Also, the AC50 on Adenosine receptor A3 was 8.8 µM; at D(3) dopamine receptor it was above 30 µM; in assay [10], 25 µM; at Motilin receptor, 12.6 µM; on Vasopressin V1a receptor, above 30 µM.

`CC(C)=CCC/C(C)=C/C=C/C(C)=C/C=C/C(C)=C/C=C/C=C(C)/C=C/C=C(C)/C=C/C=C(\C)CCC=C(C)C` [LYCOPENE]: the AC50 (in [1]; in assay [2]; at D(1A) dopamine receptor; in assay [3]; in [4]; on Melanocortin receptor 3) was above 30 µM in each case. Besides, the AC50 (in [5]; in assay [6]; in assay [7]; in assay [8]; in [9]; at Vasopressin V2 receptor) was above 30 µM in each case. Besides, the AC50 (at Adenosine receptor A3; on D(3) dopamine receptor; in assay [10]; on Motilin receptor; on Vasopressin V1a receptor) was above 30 µM each time.

For the compound `C[C@H](N)[C@H](O)c1cccc(O)c1` [METARAMINOL], the AC50 is above 10 µM in assay [1]; above 10 µM in assay [2]; above 30 µM at D(1A) dopamine receptor; above 30 µM in [3]; above 10 µM in assay [4]; above 10 µM on Melanocortin receptor 3. Besides, the AC50 in assay [5] is above 30 µM; in [6] it was above 10 µM; in [7], above 30 µM; in [8], above 10 µM; in [9] it was above 10 µM; at Vasopressin V2 receptor, above 10 µM. For the same compound, the AC50 at Adenosine receptor A3 is above 10 µM; at D(3) dopamine receptor it was above 30 µM; in assay [10] it was above 30 µM; on Motilin receptor, above 10 µM; on Vasopressin V1a receptor, above 10 µM.

As for `O=C(O)[C@H](CC(=O)N1C[C@H]2CCCC[C@H]2C1)Cc1ccccc1` [MITIGLINIDE], the AC50 in assay [1] was above 10 µM; in [2] it was above 10 µM; on D(1A) dopamine receptor, above 10 µM; in [3], above 30 µM; in assay [4], above 10 µM; on Melanocortin receptor 3, above 10 µM. The AC50 is above 30 µM in [5]; above 10 µM in [6]; above 30 µM in assay [7]; above 10 µM in assay [8]; above 10 µM in assay [9]; above 10 µM on Vasopressin V2 receptor. Moreover, the AC50 was above 10 µM at Adenosine receptor A3; above 30 µM at D(3) dopamine receptor; above 30 µM in assay [10]; above 10 µM on Motilin receptor; above 10 µM at Vasopressin V1a receptor.

With `CCCC(C)C1(CC)C(=O)NC(=O)NC1=O` (centres undefined) [PENTOBARBITAL], the AC50 in [1] is above 30 µM; in assay [2], above 10 µM; at D(1A) dopamine receptor, above 30 µM; in [3], above 30 µM; in assay [4], above 10 µM; at Melanocortin receptor 3, above 10 µM. Moreover, the half-maximal activity concentration (AC50) in assay [5] was above 30 µM; in assay [6] it was above 30 µM; in assay [7], above 30 µM; in [8], above 10 µM; in assay [9], above 10 µM; on Vasopressin V2 receptor, above 10 µM. Besides, the AC50 on Adenosine receptor A3 was above 10 µM; on D(3) dopamine receptor, above 30 µM; in assay [10] it was above 30 µM; on Motilin receptor, above 10 µM; on Vasopressin V1a receptor it was above 10 µM.

Turning to `C#C[C@]1(O)CC[C@H]2[C@@H]3CCc4cc(OC5CCCC5)ccc4[C@H]3CC[C@@]21C` [QUINESTROL], the AC50 was above 10 µM in assay [1]; above 10 µM in assay [2]; above 10 µM at D(1A) dopamine receptor; above 30 µM in assay [3]; above 10 µM in assay [4]; above 10 µM at Melanocortin receptor 3. The AC50 in [5] is above 30 µM; in assay [6], above 10 µM; in [7], above 30 µM; in assay [8] it was above 10 µM; in assay [9], above 10 µM; on Vasopressin V2 receptor it was above 10 µM. Besides, the AC50 on Adenosine receptor A3 was above 10 µM; on D(3) dopamine receptor, above 30 µM; in assay [10], above 30 µM; at Motilin receptor, above 10 µM; at Vasopressin V1a receptor, above 10 µM.
